Experimental data published in patent publication US20100130500A1, “METHODS AND COMPOSITIONS FOR THE TREATMENT OF PULMONARY HYPERTENSION OF THE NEWBORN” (BIOMARIN PHARMACEUTICAL INC., priority 2004, published 2010).
Values belong to the molecule of their own block, whether it stands above or below them.

Key:
[1] = Physical stability of crystal forms (temperature, humidity, phase equilibration); format: physicochemical
[2] = Hygroscopicity / water adsorption of crystal forms; format: physicochemical; conditions: dihydrochloride
infants with PPHN = conditions: cited from earlier work

SMILES: C[C@H](O)[C@H](O)[C@H]1CNc2nc(N)[nH]c(=O)c2N1.Cl.Cl [Polymorph A, (6R)-L-erythro-tetrahydrobiopterin dihydrochloride]
adsorbs water to a content of [2]: about 3 percent by weight | phase equilibration tests of suspensions ([1]; tetrahydrofuran or tertiary-butyl methyl ether, stirred five days and 18 hours respectively, nitrogen, room temperature, filtration and air-drying): unchanged polymorph form A

SMILES: c1ccc(CC2=NCCN2)cc1 [tolazoline]
response rate (infants with PPHN): 60%

SMILES: C[C@H](O)[C@H](O)[C@H]1CNc2nc(N)[nH]c(=O)c2N1.Cl.Cl [Polymorph B, (6R)-L-erythro-tetrahydrobiopterin dihydrochloride]
stability of the crystal form ([1]; dihydrochloride): highest thermodynamic stability above about 20 °C

SMILES: Nc1ncnc2c1ncn2[C@@H]1O[C@H](COP(=O)(O)OP(=O)(O)OP(=O)(O)O)[C@@H](O)[C@H]1O [adenosine triphosphate]
infants with a response (infants with PPHN): 5 out of 6

The next lines start with the values.

relative humidity at which the form is stable ([1]; ambient temperatures, dihydrochloride): less than 70%
SMILES: C[C@H](O)[C@H](O)[C@H]1CNc2nc(N)[nH]c(=O)c2N1.Cl.Cl [hydrate form D, (6R)-L-erythro-tetrahydrobiopterin dihydrochloride]

adsorbs water to a content of [2]: about 2.0 percent by weight
SMILES: C[C@H](O)[C@H](O)[C@H]1CNc2nc(N)[nH]c(=O)c2N1.Cl.Cl [Polymorph K, (6R)-L-erythro-tetrahydrobiopterin dihydrochloride]

adsorbs water to a content of [2]: about 3 percent by weight
SMILES: C[C@H](O)[C@H](O)[C@H]1CNc2nc(N)[nH]c(=O)c2N1.Cl.Cl [Polymorph F, (6R)-L-erythro-tetrahydrobiopterin dihydrochloride]

relative humidity at which it is transformed back into form E [1]: above 75%
SMILES: C[C@H](O)[C@H](O)[C@H]1CNc2nc(N)[nH]c(=O)c2N1.Cl.Cl [polymorph J, (6R)-L-erythro-tetrahydrobiopterin dihydrochloride]
